A value given as a limit tells only on which side of the number the result lay.

For the test, the target named is T1, HCV genotype 1b (BK) NS3 modified with a R155K mutation (Hepatitis C virus genotype 1b, UniProt P26663, R1181K).
T1 construct: HCV genotype 1b (BK) NS3 modified with a R155K mutation
As to the kind of experiment: HCV NS3 protease time-resolved fluorescence (TRF) assay, NS3 protease 1b R155K Ki activity. It is filed as biochemical. The settings on record: HCV genotype 1b (BK) NS3 with R155K mutation; TRF peptide substrate 100 nM; Ki derived from IC50. Here is the method:
The HCV NS3 protease inhibitory activity of the present compounds may be tested using assays known in the art. One such assay is HCV NS3 protease time-resolved fluorescence (TRF) assay as described below and in International Patent Application Publication WO 2006/102087. Other examples of such assays are described in e.g., International Patent Application Publication WO 2005/046712.
A NS3 protease assay can be performed, for example, in a final volume of 100 μl assay buffer containing 50 mM HEPES, pH 7.5, 150 mM NaCl, 15% glycerol, 0.15% TRITON X-100, 10 mM DTT, and 0.1% PEG 8000. NS3 and NS4A protease is pre-incubated with various concentrations of inhibitors in DMSO for 30 minutes. The reaction is initiated by adding the TRF peptide substrate (final concentration 100 nM). NS3 mediated hydrolysis of the substrate is quenched after 1 hour at room temperature with 100 μl of 500 mM MES, pH 5.5. Product fluorescence is detected using either a VICTOR V2 or FUSION fluorophotometer (Perkin Elmer Life and Analytical Sciences) with excitation at 340 nm and emission at 615 nm with a 400 μs delay. Testing concentrations of different enzyme forms are selected to result in a signal to background ratio (S/B) of 10-30. IC50 values are derived using a standard four-parameter fit to the data. Ki values are derived from IC50 values using the following formula, IC50=Ki(1+[S]/KM), Eqn (1), where [S] is the concentration of substrate peptide in the reaction and KM is the Michaelis constant. See P. Gallinari et al., 38 BIOCHEM. 5620-32 (1999); P. Gallinari et al., 72 J. VIROL. 6758-69 (1998); M. Taliani et al., 240 ANAL. BIOCHEM. 60-67 (1996).
The HCV NS3 protease inhibitory activity was measured using the protease time-resolved fluorescence (TRF) assay as described below and in International Patent Application Publication WO 2006/102087. The assay was performed with HCV genotype 1b (BK) NS3 modified with a R155K mutation.
The assay was performed in a final volume of 100 μl in assay buffer containing 50 mM HEPES, pH 7.5, 150 mM NaCl, 15% glycerol, 0.15% TRITON X-100, 10 mM DTT, and 0.1% PEG 8000. NS3 and NS4A protease is pre-incubated with various concentrations of inhibitors in DMSO for 30 minutes. The reaction is initiated by adding the TRF peptide substrate (final concentration 100 nM). NS3 mediated hydrolysis of the substrate is quenched after 1 hour at room temperature with 100 μl of 500 mM MES, pH 5.5. Product fluorescence is detected using either a VICTOR V2 or FUSION fluorophotometer (Perkin Elmer Life and Analytical Sciences) with excitation at 340 nm and emission at 615 nm with a 400 μs delay. Testing concentrations of the enzyme containing the R155K mutation were selected to result in a signal to background ratio (S/B) of 10-30. IC50 values are derived using a standard four-parameter fit to the data. Ki values are derived from IC50 values using the following formula, IC50=Ki(1+[S]/KM), Eqn (1), where [S] is the concentration of substrate peptide in the reaction and KM is the Michaelis constant. See P. Gallinari et al., 38 BIOCHEM. 5620-32 (1999); P. Gallinari et al., 72 J. VIROL. 6758-69 (1998); M. Taliani et al., 240 ANAL. BIOCHEM. 60-67 (1996).
In turn, `C=C[C@@H]1C[C@]1(NC(=O)[C@@H]1C[C@@H]2CN1C(=O)[C@H](C1CCCC1)NC(=O)O[C@@H]1CCC[C@H]1CC/C=C/Cn1c(nc3cc(-c4ccccc4)ccc3c1=O)O2)C(=O)NS(=O)(=O)C1CC1` [(3aR,7S,10S,12R,22E,25aS)-7-cyclopentyl-N-((1R,2S)-1-{[(cyclopropylsulfonyl)amino]carbonyl}-2-vinylcyclopropyl)-5,8,19-trioxo-16-phenyl-1,2,3,3a,5,6,7,8,11,12,21,24,25,25a-tetradecahydro-10H,19H-9,12-methanocyclopenta[18,19][1,10,3,6,12]dioxatriazacyclononadecino[11,12-b]quinazoline-10-carboxamide] gave an inhibition constant (Ki) of less than 0.1 nM. In the case of `C=C[C@@H]1C[C@]1(NC(=O)[C@@H]1C[C@@H]2CN1C(=O)[C@H](C1CCCC1)NC(=O)O[C@@H]1CCC[C@H]1CC/C=C/Cc1c(nc3ccccn3c1=O)O2)C(=O)NS(=O)(=O)C1CC1` [(3aR,7S,10S,12R,22E,25aS)-7-cyclopentyl-N-((1R,2S)-1-{[(cyclopropylsulfonyl)amino]carbonyl}-2-vinylcyclopropyl)-5,8,20-trioxo-1,2,3,3a,5,6,7,8,11,12,21,24,25,25a-tetradecahydro-10H,20H-9,12-methanocyclopenta[r]pyrido[1′,2′:1,2]pyrimido[4,5-k][1,10,3,6]dioxadiazacyclononadecine-10-carboxamide] it was less than 0.1 nM; in that of `C=C[C@@H]1C[C@]1(NC(=O)[C@@H]1C[C@@H]2CN1C(=O)[C@H](C1CCCC1)NC(=O)O[C@@H]1CCC[C@H]1CC/C=C/Cn1c(nc3cc(S(C)(=O)=O)ccc3c1=O)O2)C(=O)NS(=O)(=O)C1CC1` [(3aR,7S,10S,12R,22E,25aS)-7-cyclopentyl-N-((1R,2S)-1-{[(cyclopropylsulfonyl)amino]carbonyl}-2-vinylcyclopropyl)-16-(methylsulfonyl)-5,8,19-trioxo-1,2,3,3a,5,6,7,8,11,12,21,24,25,25a-tetradecahydro-10H,19H-9,12-methanocyclopenta[18,19][1,10,3,6,12]dioxatriazacyclononadecino[11,12-b]quinazoline-10-carboxamide], less than 0.1 nM. `C=C[C@@H]1C[C@]1(NC(=O)[C@@H]1C[C@@H]2CN1C(=O)[C@H](C1CCCC1)NC(=O)O[C@@H]1CCC[C@H]1CC/C=C/Cn1c(nc3cc(OC)ccc3c1=O)O2)C(=O)NS(=O)(=O)C1CC1` [(3aR,7S,10S,12R,22E,25aS)-7-cyclopentyl-N-((1R,2S)-1-{[(cyclopropylsulfonyl)amino]carbonyl}-2-vinylcyclopropyl)-16-methoxy-5,8,19-trioxo-1,2,3,3a,5,6,7,8,11,12,21,24,25,25a-tetradecahydro-10H,19H-9,12-methanocyclopenta[18,19][1,10,3,6,12]dioxatriazacyclononadecino[11,12-b]quinazoline-10-carboxamide] had an inhibitory constant (Ki) of less than 0.1 nM. In turn, `C=C[C@@H]1C[C@]1(NC(=O)[C@@H]1C[C@@H]2CN1C(=O)[C@H](C1CCCC1)NC(=O)O[C@@H]1CCC[C@H]1CC/C=C/Cn1c(nc3cccc(OC)c3c1=O)O2)C(=O)NS(=O)(=O)C1CC1` [(3aR,7S,10S,12R,22E,25aS)-7-cyclopentyl-N-((1R,2S)-1-{[(cyclopropylsulfonyl)amino]carbonyl}-2-vinylcyclopropyl)-18-methoxy-5,8,19-trioxo-1,2,3,3a,5,6,7,8,11,12,21,24,25,25a-tetradecahydro-10H,19H-9,12-methanocyclopenta[18,19][1,10,3,6,12]dioxatriazacyclononadecino[11,12-b]quinazoline-10-carboxamide] yielded an inhibitory constant (Ki) of less than 0.1 nM. With `CC[C@@H]1C[C@]1(NC(=O)[C@@H]1C[C@@H]2CN1C(=O)[C@H](C1CCCC1)NC(=O)O[C@@H]1CCC[C@H]1CC/C=C/Cn1c(nc3cc(Br)ccc3c1=O)O2)C(=O)NS(=O)(=O)C1CC1` [(3aR,7S,10S,12R,22E,25aS)-16-bromo-7-cyclopentyl-N-((1R,2R)-1-{[(cyclopropylsulfonyl)amino]carbonyl}-2-ethylcyclopropyl)-5,8,19-trioxo-1,2,3,3a,5,6,7,8,11,12,21,24,25,25a-tetradecahydro-10H,19H-9,12-methanocyclopenta[18,19][1,10,3,6,12]dioxatriazacyclononadecino[11,12-b]quinazoline-10-carboxamide] the figure was 0.1 to 0.5 nM; with `CC[C@@H]1C[C@]1(NC(=O)[C@@H]1C[C@@H]2CN1C(=O)[C@H](C1CCCC1)NC(=O)O[C@@H]1CCC[C@H]1CC/C=C/Cn1c(nc3cc(Cl)ccc3c1=O)O2)C(=O)NS(=O)(=O)C1CC1` [(3aR,7S,10S,12R,22E,25aS)-16-chloro-7-cyclopentyl-N-((1R,2R)-1-{[(cyclopropylsulfonyl)amino]carbonyl}-2-ethylcyclopropyl)-5,8,19-trioxo-1,2,3,3a,5,6,7,8,11,12,21,24,25,25a-tetradecahydro-10H,19H-9,12-methanocyclopenta[18,19][1,10,3,6,12]dioxatriazacyclononadecino[11,12-b]quinazoline-10-carboxamide], 0.1 to 0.5 nM; with `C=C[C@@H]1C[C@]1(NC(=O)[C@@H]1C[C@@H]2CN1C(=O)[C@H](C1CCCC1)NC(=O)O[C@@H]1CCC[C@H]1CC/C=C/Cn1c(nc3cc(Cl)ccc3c1=O)O2)C(=O)NS(=O)(=O)C1CC1` [(3aR,7S,10S,12R,22E,25aS)-16-chloro-7-cyclopentyl-N-((1R,2S)-1-{[(cyclopropylsulfonyl)amino]carbonyl}-2-vinylcyclopropyl)-5,8,19-trioxo-1,2,3,3a,5,6,7,8,11,12,21,24,25,25a-tetradecahydro-10H,19H-9,12-methanocyclopenta[18,19][1,10,3,6,12]dioxatriazacyclononadecino[11,12-b]quinazoline-10-carboxamide], less than 0.1 nM. With `CC[C@@H]1C[C@]1(NC(=O)[C@@H]1C[C@@H]2CN1C(=O)[C@H](C1CCCC1)NC(=O)O[C@@H]1CCC[C@H]1CC/C=C/Cn1c(nc3cc(C#N)ccc3c1=O)O2)C(=O)NS(=O)(=O)C1CC1` [(3aR,7S,10S,12R,22E,25aS)-16-cyano-7-cyclopentyl-N-((1R,2R)-1-{[(cyclopropylsulfonyl)amino]carbonyl}-2-ethylcyclopropyl)-5,8,19-trioxo-1,2,3,3a,5,6,7,8,11,12,21,24,25,25a-tetradecahydro-10H,19H-9,12-methanocyclopenta[18,19][1,10,3,6,12]dioxatriazacyclononadecino[11,12-b]quinazoline-10-carboxamide] the figure was 0.1 to 0.5 nM. In turn, `C=C[C@@H]1C[C@]1(NC(=O)[C@@H]1C[C@@H]2CN1C(=O)[C@H](C1CCCC1)NC(=O)O[C@@H]1CCC[C@H]1CCC/C=C/Cn1c(cc3ccccc3c1=O)O2)C(=O)NS(=O)(=O)C1CC1` [(3aR,7S,10S,12R,22E,26aR)-7-cyclopentyl-N-((1R,2S)-1-{[(cyclopropylsulfonyl)amino]carbonyl}-2-vinylcyclopropyl)-5,8,19-trioxo-2,3,3a,5,6,7,8,11,12,21,24,25,26,26a-tetradecahydro-1H,10H,19H-9,12-methanocyclopenta[19,20][1,10,3,6,12]dioxatriazacycloicosino[12,11-b]isoquinoline-10-carboxamide] yielded a Ki of 0.1 to 0.5 nM.

The Ki is a dissociation constant, usually derived from enzyme kinetics or from competition with a known ligand. A lower Ki goes with higher affinity.
